Data taken from BindingDB's records for doi:10.1016/j.bmcl.2008.03.079 (Columbia University, 2008).

Biological target: T1, Tyrosine-protein phosphatase non-receptor type 22 (Homo sapiens, UniProt Q9Y2R2)
T1 sequence (Q9Y2R2 whole entry): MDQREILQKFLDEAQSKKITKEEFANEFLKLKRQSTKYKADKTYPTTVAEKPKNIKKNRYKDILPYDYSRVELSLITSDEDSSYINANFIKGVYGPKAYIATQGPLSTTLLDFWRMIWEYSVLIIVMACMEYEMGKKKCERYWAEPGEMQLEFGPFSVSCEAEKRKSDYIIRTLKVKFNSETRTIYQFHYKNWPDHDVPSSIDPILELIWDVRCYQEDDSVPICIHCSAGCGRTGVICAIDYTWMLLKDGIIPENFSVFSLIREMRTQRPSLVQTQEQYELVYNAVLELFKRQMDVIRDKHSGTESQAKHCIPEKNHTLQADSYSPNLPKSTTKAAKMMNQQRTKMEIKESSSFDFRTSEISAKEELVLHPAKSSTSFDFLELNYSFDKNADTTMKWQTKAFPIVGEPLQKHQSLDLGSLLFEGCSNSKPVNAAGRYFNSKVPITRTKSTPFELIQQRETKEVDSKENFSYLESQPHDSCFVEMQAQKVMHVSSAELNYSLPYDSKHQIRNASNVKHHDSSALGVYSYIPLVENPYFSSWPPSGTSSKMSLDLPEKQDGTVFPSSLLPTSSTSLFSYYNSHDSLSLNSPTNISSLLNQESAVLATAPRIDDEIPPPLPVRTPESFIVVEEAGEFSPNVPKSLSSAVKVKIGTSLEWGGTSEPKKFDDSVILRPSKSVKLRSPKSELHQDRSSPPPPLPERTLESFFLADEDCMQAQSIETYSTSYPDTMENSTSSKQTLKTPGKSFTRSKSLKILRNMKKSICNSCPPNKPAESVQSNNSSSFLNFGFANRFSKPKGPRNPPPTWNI
Assay: Inhibition of lymphoid specific tyrosine phosphatase

IC50 | SMILES
> 44 µM | O=C(O)Cn1c(O)cn(N=Cc2ccc(-c3ccc(O)c(C(=O)O)c3)s2)c1=O
> 44 µM | COC(=O)c1cc(-c2ccc(C=Nn3cc(O)[nH]c3=O)s2)ccc1O
> 44 µM | O=C(O)c1cc(-c2ccc(C=Nn3cc(O)[nH]c3=O)o2)ccc1O
> 44 µM | COC(=O)c1cc(-c2ccc(C=Nn3cc(O)[nH]c3=O)o2)ccc1O
